# Measured values published in US8859235B2, “Methods in cell cultures, and related inventions, employing certain additives” (priority 2009, dated 2014).
# Assays:
# E. coli BL21 = experiment: Growth and GFPuv expression in E. coli BL21 (DE3), shake flask batch culture in complex medium; format: cell-based, Escherichia coli
# Method: (§1) The measurement of GFP expression by whole cell fluorescence measurements follows the procedure of Scholz et al. (Eur. J. Biochem., 2000,267, 1565-1570). Frozen cell pellets are thawed, resuspended in 1 mL PBS [NaCl (8 g/L), KCl (0.2), of Na2HPO4 (1.44), KH2PO4 (0.24), adjusted to pH 7.4] and subsequently diluted to an optical density of 0.1. GFP fluorescence of whole cells is measured in a Eclipse Fluorometer (Varian) with an excitation wavelength of 400 nm and an emission wavelength of 512 nm. Specific relative fluorescence [RFU/OD600] is calculated by dividing the relative fluorescence emmision units by the optical density of the suspension at 600 nm.
# Precultures are prepared in 250 mL baffled shake flasks containing 25 mL sterile LB medium [Tryptone (10.0 g/L), yeast extract (5.0), NaCl (10.0), kanamycin 30 (mg/L); adjusted to pH 7.0 with NaOH]. Cultures are inoculated with 250 μL of a glycerol stock stored at −80° C. of E. coli BL21 [Novagen, Madison, USA; Genotype: E ompT hsdSB (rB^− mB^−) gal dcm (DE3)] harboring the plasmid pET28a-GFPuv which is obtained by inserting the GFPuv gene (isolated from pBAD-GFPuv through PCR) into the EcoRI site of pET28a (Novagen, Madison, USA) which placed the GFPuv gene under the control of the T7/Lac promotor system. Precultures are incubated at 37° C. for 10-12 h.
# Experimental cultures are performed in a volume of 25 mL of the above described medium in 250 mL baffled shake flasks. Stabilizers are added to a final concentration of 5 mM as indicated from sterile stock solutions. Cultures are started by inoculating with the preculture to an OD600 at 600 nm of 0.25. Samples are taken for OD600 measurements. Cultures are induced by adding IPTG (Isopropyl-β-D-thiogalactoside) to a final concentration of 0.5 mM when the OD600 reaches 0.5. Samples of 1 mL are taken after induction for OD600 reading and GFP quantification. For GFP quantification 1 mL of the culture is harvested after 2-4 h and after 20 h after induction. Cells are collected by centrifugation at 16 000 g and the cell pellet is stored at −20° C. for further analysis. Analysis of in vivo GFP fluorescence is performed by the method described in Example 1.
# E. coli HM125 = experiment: Growth and expression of FimH-CRD in E. coli HM125, shake flask cultivation in mineral medium; format: cell-based, Escherichia coli; details: for mg FimH/g cell: control 0.81; for FimH / Cell pellet: mean of triplicate; for FimH: control 6.48 ± 0.36; for Cell pellet: control 7.99 ± 0.25
# Source text: Standard molecular techniques are used for the cloning of the FimH carbohydrate recognition domain (FimH-CRD). The plasmid pfimHs-trc, encoding FimH lectin domain (1-156 amino acids M. Vetsch P et. al. 2002—J. Mol. Biol. 322: 827-840), is kindly provided by R. Glockshuber (ETH Zürich, Switzerland). The FimH-CRD fragment is amplified by polymerase chain reaction using specific forward primer containing the restriction site NdeI and a specific reverse primer containing the thrombin cleavage site and the restriction site XhoI, respectively. The insert is ligated into the corresponding cloning site in pET21b. The resulting contrast is named pET21b-FimH-CRD.
# Precultures are prepared in 25 mL sterile LB medium [Tryptone (10.0 g/L), yeast extract (5.0 g/L), NaCl (10.0 g/L), ampicillin 100 (mg/L); adjusted to pH 7.0 with NaOH]. Cultures are inoculated with a glycerol stock stored at −80° C. of the protease deficient strain E. coli HM125 (Meerman H J & Georgiou G. 1994. Biotechnology (NY) 2, 1107-1110) harboring the plasmid pET21b-FimH-CRD Vector. Precultures are incubated at 37° C. for 10-12 h. Experimental cultures are performed in a volume of 500 mL of modified M9 medium [Na2HPO4×7H2O (12.8 g/L), KH2PO4 (3 g/L), NaCl (0.5 g/L), NH4Cl (1 g/L), D-glucose (4 g/L), MgSO4 (0.12 g/L), CaCl2 (0.01 g/L) and vitamins (in mg/L): riboflavin (0.1), choline chloride (1), folic Acid (1), niacinamide (1), p-amino benzoic acid (1), pyridoxal-HCl (1), thiamine-HCl (1), myo-lnositol (2)] supplemented with 100 mg/L ampicillin. Cultures are inoculated with 5 mL of the preoculture and grown at 30° C. and 150 rpm) until the optical density at 600 nm (0D600) reached 0.8-1.0. Then 1 mM IPTG and the stabilizer(s) (obligatory additive) according to the invention are added to final concentrations of 5, 10 and 20 mM as indicated from sterile stock solutions and the cultures are grown overnight. Then the cells are cooled on ice for 5 min and harvested by centrifugation at 5′000 rpm for 20 min at 4° C. Cell are harvested by centrifugation and biomass is quantified by weighing the wet cell pellets. The pellet is suspended in a cold solution of 50 mM Tris-HCl, pH 7.5, 150 mM NaCl, 5 mM EDTA, 1 mg/mL polymyxin B sulfate and stirred for two hours at 4° C. After centrifugation at 11′000 rpm for 20 min at 4° C., the supernatant (periplasmic extract) is dialyzed overnight against 50 mM NaH2PO4, 300 mM NaCl and 10 mM imidazole, pH 8 (binding buffer) and applied to a Ni-NTA column (Sigma, Buchs, Switzerland) attached to a BioLogic fast protein liquid chromatography system (BioRad, Reinach BL, Switzerland). The column is washed with binding buffer and afterwards eluted with 50 mM NaH2PO4, 300 mM NaCl and 250 mM imidazole, pH 8 (elution buffer). Fractions containing FimH-CRD-Th-6H is are pooled and dialyzed against water and then against 20 mM HEPES, 150 mM NaCl and 1 mM CaCl2, pH 7.4.
# The concentration of protein is determined by HPLC method (Agilent 1100/1200 series) using BSA as standard (Sigma). The column Poros R1/10 10 μm (100×2 mm, Morvay Analytik) is kept at 60° C.; eluents are A: 0.1% trifluoroacetic acid (TFA) in H2O and B: 90% MeCN+0.09% TFA. A gradient of 20% B to 90% B is run within 20 min at a flow rate of 0.2 mL/min. The detection is monitored at 210 nm. Results are compiled in the following tables 5 and 6.
# E. coli JM109 [1] = experiment: Growth and GFPuv expression in E. coli JM109, shake flask cultivation in mineral medium; format: cell-based, Escherichia coli; details: additive 5 mM, 20 h, mean of two
# Method: Precultures are prepared in 250 mL baffled shake flasks containing 25 mL sterile mineral medium [macronutrients in g/L: Glycerol (25), (NH4)2-citrate (1.0), Na2HPO4 2H2O (9.0), KH2PO4 (1.82), NH4Cl (1.52), MgSO4 (0.12), (NH4)2SO4 (0.6); Ampicillin ([…]); micronutrients in mg/L: Na2-EDTA (8.4), thiamine (4.5), Fe(III) citrate (12.5), Na2MoO4 2×H2O (2.5), H3BO3 (3), CoCl2 6×H2O (2.5), CuSO4 5×H2O (0.45) MnCl24×H2O (15), ZnCl2 (8) adjusted to pH 7.0]. Cultures are inoculated with 250 μL of a glycerol stock stored at −80° C. of E. coli JM109 (Promega Inc, Wallisellen, C H; Genotype: endA1, recA1, gyrA96, thi, hsdR17 (rk^−, mk^+), re/A1, supE44, Δ(lac-proAB), [F″ traD36, proAB, laql^qZΔM15]) harboring the plasmid pBAD-GFPuv (Biorad Inc., Reinach, C H; Genbank U62637.1, containing the GFPuv gene under control of the ara promoter; GFP=Green Fluorescent Protein). Precultures are incubated at 37° C. for 10-12 h.
# Experimental cultures are performed in a volume of 25 mL of the above described medium in 250 mL baffled shake flasks. Stabilizers according to the invention are added to a final concentration of 5 mM as indicated from sterile stock solutions. Cultures are started by inoculating with the preculture to an optical density at 600 nm (OD600) of 0.25. Growth of the culture is monitored by reading optical density at 600 nm. Cultures are induced by adding L-arabinose to a final concentration of 0.2% (w/v) when the OD600 reaches 0.5. Samples of 1 mL are taken 6 and 20 h after induction for OD600 reading and GFP quantification. For GFP quantification 1 mL of the culture is harvested after 2-4 h and after 20 h after induction. Cells are collected by centrifugation at 16 000 g and the cell pellet is stored at −20° C. for further analysis.
# as §1
# E. coli JM109 [2] = experiment: Growth and GFP expression in high cell density fedbatch cultivation of E. coli JM109 in mineral medium; format: cell-based, Escherichia coli; details: for Optical density Value / GFP expression (RFU/OD600) Value: additive 5 mM; for GFP expression Factor / Optical density Factor: relative to control = 1
# Method: as §1
# A first preculture of E. coli JM109 harboring the plasmid pBAD-GFPuv is initiated from glycerol stocks stored at −80° C. in 3 mL of LB medium containing 0.01% (v/v) Antifoam A (Fluka). After growth for 10-12 h it is used to seed 2×100 mL of mineral medium (as described in Example 1) containing 0.01% Antifoam A (silicone fluid containing a suspension of finely powdered silica to enhance its defoaming efficiency; Dow Corning Corporation, Midland, Mich., USA), in 1 L baffled shake flasks. After 10-12 h this culture is centrifuged resuspended in 50 mL mineral medium and is used to inoculate the main culture.
# Cultivation is performed in BioFlow110 bioreactors (Total volume 2.2 L; New Brunswick Scientific, Nürtingen, Germany) filled with 1 L of mineral medium plus 0.01% (v/v) Antifoam A for the batch phase. Reactors are equipped with pH, pO2 and foam probes, mass flow controllers to control gas flow and ratio of air and pure oxygen and pumps for automated dosage of base (14% [v/v] aqueous NH3), antifoam (25% [v/v] Antifoam A) and nutrient feed solution. The agitation is set to 500 rpm and air is supplied at a gas flow rate of 2 L/min. The fedbatch culture is incoculated to an OD600 of 0.25-0.5 and allowed to grow unlimited with a specific growth rate of ˜0.5 h^−1. Growth is monitored by measuring OD600. When the disolved oxygen concentration decreases to 30%, automated adjustment of the air:oxygen ratio in the gas mix is started to control dO2 to 30% using a PID loop. When the gas mix consisted of 100% oxygen a further increase in oxygen transfer is achieved through increasing the agitation rate up to a maximum level of 1200 rpm. When glycerol in the batch medium is completely consumed, as indicated by a distinct drop of pure oxygen in the gas mix, feeding solutions (first containing 70 g/L glycerol and later as cell density increased 200 g/L glycerol in mineral medium) are pumped into the reactor by a predefined exponential fed scheme. The feeding rate is calculated to allow the cells to grow at a growth rate of approximately 0.15 h^−1. During the feeding phase dO2 is also kept at 30%. 3-6 h after starting the feeding protein expression is induced by the addition of 0.2 (w/v) L-arabinose. Samples are taken every hour for OD600 reading and to obtain cell pellets which are stored at −20° C. for further analysis. Analysis of in vivo GFP fluorescence is performed by the method described in Example 1.
# P. pastoris = details: 4-10 mM in the medium; Xiao, Appl. Microbiol. Biotechnol. (2006); cited from earlier work
# [3] = Experiment 6, process time 24.75 h
# [4] = Experiment 7, process time 17 h
compound,measurement,setting,value
"CC1(C)CC(O)CC(C)(C)N1O [1,4-dihydroxy-2,2,6,6-tetramethylpiperidine]",Growth (Final OD600),"E. coli BL21; Experiment 2, additive 5 mM, 20 h after induction, control 3.3",3.19 OD600
same,GFP expression (Relative fluorescence unit*OD600^−1),"E. coli BL21; Experiment 2, additive 5 mM, 20 h after induction, control 195",222 Relative fluorescence unit*OD600^−1
same,"Effect on GFPuv expression and growth, in words",E. coli BL21; comment on Table 2,shows at least some effect and is not detrimental
same,mg FimH/g cell,E. coli HM125; additive 5 mM,1.1 mg FimH/g cell
same,FimH,E. coli HM125; additive 5 mM,9.1 ± 0.56 mg/L
same,Cell pellet,E. coli HM125; additive 5 mM,8.22 ± 0.35 g/L
same,mg FimH/g cell,E. coli HM125; additive 10 mM,1.22 mg FimH/g cell
same,FimH,E. coli HM125; additive 10 mM,9.59 ± 0.49 mg/L
same,Cell pellet,E. coli HM125; additive 10 mM,7.86 ± 0.25 g/L
same,mg FimH/g cell,E. coli HM125; additive 20 mM,1.26 mg FimH/g cell
same,FimH,E. coli HM125; additive 20 mM,10.08 ± 0.66 mg/L
same,Cell pellet,E. coli HM125; additive 20 mM,7.94 ± 0.33 g/L
Tris(tetramethylhydroxypiperidinol) citrate,Growth (Final OD600),"E. coli JM109 [1]; Experiment 3, control 10.4",11.4 OD600
same,GFP expression (Relative fluorescence unit*OD600^−1),"E. coli JM109 [1]; Experiment 3, control 1189",2675 Relative fluorescence unit*OD600^−1
"CC1(C)CC(O)CC(C)(C)N1 [4-Hydroxy-2,2,6,6-tetramethyl-piperidine]",Growth (Final OD600),"E. coli JM109 [1]; Experiment 2, control 11.0",10.9 OD600
same,GFP expression (Relative fluorescence unit*OD600^−1),"E. coli JM109 [1]; Experiment 2, control 1423",1646 Relative fluorescence unit*OD600^−1
same,Optical density Value,"E. coli JM109 [2]; Experiment 6, process time 24.75 h, control 10.3",24.7
same,GFP expression (RFU/OD600) Value,"E. coli JM109 [2]; Experiment 6, process time 24.75 h, control 1038",5507 RFU/OD600
same,GFP expression Factor,E. coli JM109 [2]; [3],5.3
same,Optical density Factor,E. coli JM109 [2]; [3],2.39
same,Optical density Value,"E. coli JM109 [2]; Experiment 7, process time 17 h, control 56.4",57.1
same,GFP expression (RFU/OD600) Value,"E. coli JM109 [2]; Experiment 7, process time 17 h, control 5765",6438 RFU/OD600
same,GFP expression Factor,E. coli JM109 [2]; [4],1.12
same,Optical density Factor,E. coli JM109 [2]; [4],1.01
O=C1O[C@H]([C@@H](O)CO)C(O)=C1O [Ascorbic acid],Hirudin yield and quality,P. pastoris,increased
